Experimental data taken from patent US4061645A, “2-Trichloromethyl-5-methylsulfinyl-1,3,4-thiadiazole” (Schering Aktiengesellschaft, priority 1972, dated 1977).

Tested on: Rhizoctonia solani
Assay: Limit concentration of soil-fungicidal effectiveness, Rhizoctonia solani, infested soil seeded with peas (Example 1)
Type: in vivo
Conditions: soil, 480 h, 20 to 23 days, 22°-25° C, read-out: Limit concentration of the fungicidal effectiveness
Procedure: Limit concentrations of the soil-fungicidal effectiveness at homogeneous mixture of the products with the infested soil. Basic condition in the evaluation are a sound root formation without fungus necroses and germination of the seed of at least 90% compared with the result obtained in steamed soil. Per concentration there were seeded 25 grains of peas of the variety "Miracle of Kelvedon" (marrow pea) without a waiting period. The cultivation time in the tests was 20 to 23 days at a temperature of 22°-25° C. Four commercial products were included in the test series.
Rhizoctania solani: -- Steamed compost soil was inoculated with mycelium of Rhizoctonia solani.

Structure (SMILES)	minimal effective concentration [µg/mL]
CCCS(=O)(=O)c1nnc(C(Cl)(Cl)Cl)s1 [Compound 23, 2-trichloromethyl-5-propylsulfonyl-1,3,4-thiadiazole]	30
CC[S+]([O-])c1nnc(C(Cl)(Cl)Cl)s1 (centres unmarked) [Compound 9, 2-trichloromethyl-5-ethylsulfinyl-1,3,4-thiadiazole]	10
CCC[S+]([O-])c1nnc(C(Cl)(Cl)Cl)s1 (centres unmarked) [Compound 10, 2-trichloromethyl-5-propylsulfinyl-1,3,4-thiadiazole]	20
CCCCC[S+]([O-])c1nnc(C(Cl)Cl)s1 (centres unmarked) [Compound 7, 2-dichloromethyl-5-amylsulfinyl-1,3,4-thiadiazole]	50

Tested on: Rhizoctonia solani
Assay: Rhizoctonia solani infested compost soil, marrow peas (Example 3)
Type: in vivo
Conditions: 10 mg active ingr. per liter of soil; 3 weeks
From the text: Steamed compost soil was inoculated with mycelium of Rhizoctonia solani. After homogeneous mixture of the products with the infested soil, the products were present in the form of 20% powder preparations, the seeding of 25 grains of marrow peas of the variety "Miracle of Kelvedon" per concentration was effected without waiting period in clay dishes holding 1 liter of soil. The table lists the number of germinated sound peas, the weight of the fresh plant, and a root evaluation after a cultivation period of three weeks at 22°-25° C.

Structure (SMILES)	Weight of fresh plant [g]
CCCS(=O)(=O)c1nnc(C(Cl)(Cl)Cl)s1 [Compound 23, 2-trichloromethyl-5-propylsulfonyl-1,3,4-thiadiazole]	9
CC[S+]([O-])c1nnc(C(Cl)(Cl)Cl)s1 (centres unmarked) [Compound 9, 2-trichloromethyl-5-ethylsulfinyl-1,3,4-thiadiazole]	18

Same assay, conditions: 10 mg active ingr. per liter of soil; of 25 grains

Structure (SMILES)	Number of sound peas after 3 wks.
CCCS(=O)(=O)c1nnc(C(Cl)(Cl)Cl)s1 [Compound 23, 2-trichloromethyl-5-propylsulfonyl-1,3,4-thiadiazole]	13
CC[S+]([O-])c1nnc(C(Cl)(Cl)Cl)s1 (centres unmarked) [Compound 9, 2-trichloromethyl-5-ethylsulfinyl-1,3,4-thiadiazole]	22

Same assay, conditions: 20 mg active ingr. per liter of soil; 3 weeks

Structure (SMILES)	Weight of fresh plant [g]
CCCS(=O)(=O)c1nnc(C(Cl)(Cl)Cl)s1 [Compound 23, 2-trichloromethyl-5-propylsulfonyl-1,3,4-thiadiazole]	17
CC[S+]([O-])c1nnc(C(Cl)(Cl)Cl)s1 (centres unmarked) [Compound 9, 2-trichloromethyl-5-ethylsulfinyl-1,3,4-thiadiazole]	16

Same assay, conditions: 20 mg active ingr. per liter of soil; of 25 grains

Structure (SMILES)	Number of sound peas after 3 wks.
CCCS(=O)(=O)c1nnc(C(Cl)(Cl)Cl)s1 [Compound 23, 2-trichloromethyl-5-propylsulfonyl-1,3,4-thiadiazole]	21
CC[S+]([O-])c1nnc(C(Cl)(Cl)Cl)s1 (centres unmarked) [Compound 9, 2-trichloromethyl-5-ethylsulfinyl-1,3,4-thiadiazole]	22

Same assay, conditions: 30 mg active ingr. per liter of soil; 3 weeks

Structure (SMILES)	Weight of fresh plant [g]
CCCS(=O)(=O)c1nnc(C(Cl)(Cl)Cl)s1 [Compound 23, 2-trichloromethyl-5-propylsulfonyl-1,3,4-thiadiazole]	20
CC[S+]([O-])c1nnc(C(Cl)(Cl)Cl)s1 (centres unmarked) [Compound 9, 2-trichloromethyl-5-ethylsulfinyl-1,3,4-thiadiazole]	17

Same assay, conditions: 30 mg active ingr. per liter of soil; of 25 grains

Structure (SMILES)	Number of sound peas after 3 wks.
CCCS(=O)(=O)c1nnc(C(Cl)(Cl)Cl)s1 [Compound 23, 2-trichloromethyl-5-propylsulfonyl-1,3,4-thiadiazole]	24
CC[S+]([O-])c1nnc(C(Cl)(Cl)Cl)s1 (centres unmarked) [Compound 9, 2-trichloromethyl-5-ethylsulfinyl-1,3,4-thiadiazole]	23

Tested on: Fusarium oxysporum f. callistephi
Assay: Fusarium infested compost soil, Callistephus chinesis seedlings (Example 5)
Type: in vivo
Conditions: 50 mg active ingredient per liter of soil; of 4 seedlings
From the text: Steamed compost soil was inoculated with a spore suspension of Fusarium oxysporum f. callistephi. After homogeneous mixture of the products with the infested soil, the products were present as 20% powder preparations, and after a waiting period of 8 days, there were set out per concentration 4 seedlings of Callistephus chinesis, master aster "Sun Ray" as host plants.

Structure (SMILES)	Number of attacked plants after 3 weeks
CC[S+]([O-])c1nnc(C(Cl)(Cl)Cl)s1 (centres unmarked) [Compound 9, 2-trichloromethyl-5-ethylsulfinyl-1,3,4-thiadiazole]	0

Same assay, conditions: 100 mg active ingredient per liter of soil; of 4 seedlings

Structure (SMILES)	Number of attacked plants after 3 weeks
CC[S+]([O-])c1nnc(C(Cl)(Cl)Cl)s1 (centres unmarked) [Compound 9, 2-trichloromethyl-5-ethylsulfinyl-1,3,4-thiadiazole]	0

Tested on: Asperqilus niger
Assay: Agar test (Example 7), Aspergillus
Type: cell-based
Conditions: 10 ppm; 5 days at 22° C; control 100
Procedure: (§1) The fungicidal action of the agents according to the invention was tested in artificial nutrient media against plant-pathogenic fungi in Petri dishes (agar test). The procedure was to sterilize the medium consisting of 2% malt extract and 1.5% agar-agar powder. Before the solidification of the medium, the active substances were added to it, mixing thoroughly, so that the medium received 10 parts of active substance per million (ppm). After the solidification of the medium, the latter was inoculated with a platinum dropper which contained 100 spores each of the fungi to be tested, and after five days at 22° C, an evaluation was made by measuring the diameter of the colonies in mm.

Structure (SMILES)	diameter of the colonies [mm]
CCCS(=O)(=O)c1nnc(C(Cl)(Cl)Cl)s1 [Compound 23, 2-trichloromethyl-5-propylsulfonyl-1,3,4-thiadiazole]	0
CC[S+]([O-])c1nnc(C(Cl)(Cl)Cl)s1 (centres unmarked) [Compound 9, 2-trichloromethyl-5-ethylsulfinyl-1,3,4-thiadiazole]	0
CCC[S+]([O-])c1nnc(C(Cl)(Cl)Cl)s1 (centres unmarked) [Compound 10, 2-trichloromethyl-5-propylsulfinyl-1,3,4-thiadiazole]	0
CCCCC[S+]([O-])c1nnc(C(Cl)Cl)s1 (centres unmarked) [Compound 7, 2-dichloromethyl-5-amylsulfinyl-1,3,4-thiadiazole]	0

Tested on: Botrytis cinerea
Assay: Agar test (Example 7), Botrytis
Type: cell-based
Conditions: 10 ppm; 5 days at 22° C; control 100
Procedure: as §1

Structure (SMILES)	diameter of the colonies [mm]
CCCS(=O)(=O)c1nnc(C(Cl)(Cl)Cl)s1 [Compound 23, 2-trichloromethyl-5-propylsulfonyl-1,3,4-thiadiazole]	0
CC[S+]([O-])c1nnc(C(Cl)(Cl)Cl)s1 (centres unmarked) [Compound 9, 2-trichloromethyl-5-ethylsulfinyl-1,3,4-thiadiazole]	0
CCC[S+]([O-])c1nnc(C(Cl)(Cl)Cl)s1 (centres unmarked) [Compound 10, 2-trichloromethyl-5-propylsulfinyl-1,3,4-thiadiazole]	0
CCCCC[S+]([O-])c1nnc(C(Cl)Cl)s1 (centres unmarked) [Compound 7, 2-dichloromethyl-5-amylsulfinyl-1,3,4-thiadiazole]	22

Tested on: Colletotrichum gloeosporioides
Assay: Agar test (Example 7), Colletotrichum
Type: cell-based
Conditions: 10 ppm; 5 days at 22° C; control 100
Procedure: as §1

Structure (SMILES)	diameter of the colonies [mm]
CCCS(=O)(=O)c1nnc(C(Cl)(Cl)Cl)s1 [Compound 23, 2-trichloromethyl-5-propylsulfonyl-1,3,4-thiadiazole]	0
CC[S+]([O-])c1nnc(C(Cl)(Cl)Cl)s1 (centres unmarked) [Compound 9, 2-trichloromethyl-5-ethylsulfinyl-1,3,4-thiadiazole]	0
CCC[S+]([O-])c1nnc(C(Cl)(Cl)Cl)s1 (centres unmarked) [Compound 10, 2-trichloromethyl-5-propylsulfinyl-1,3,4-thiadiazole]	0
CCCCC[S+]([O-])c1nnc(C(Cl)Cl)s1 (centres unmarked) [Compound 7, 2-dichloromethyl-5-amylsulfinyl-1,3,4-thiadiazole]	0

Tested on: Helminthosporium sativum
Assay: Agar test (Example 7), Helminthosporium
Type: cell-based
Conditions: 10 ppm; 5 days at 22° C; control 100
Procedure: as §1

Structure (SMILES)	diameter of the colonies [mm]
CCCS(=O)(=O)c1nnc(C(Cl)(Cl)Cl)s1 [Compound 23, 2-trichloromethyl-5-propylsulfonyl-1,3,4-thiadiazole]	0
CC[S+]([O-])c1nnc(C(Cl)(Cl)Cl)s1 (centres unmarked) [Compound 9, 2-trichloromethyl-5-ethylsulfinyl-1,3,4-thiadiazole]	0
CCC[S+]([O-])c1nnc(C(Cl)(Cl)Cl)s1 (centres unmarked) [Compound 10, 2-trichloromethyl-5-propylsulfinyl-1,3,4-thiadiazole]	0
CCCCC[S+]([O-])c1nnc(C(Cl)Cl)s1 (centres unmarked) [Compound 7, 2-dichloromethyl-5-amylsulfinyl-1,3,4-thiadiazole]	0

Tested on: Stemphylium ilicis
Assay: Agar test (Example 7), Stemphylium
Type: cell-based
Conditions: 10 ppm; 5 days at 22° C; control 100
Procedure: as §1

Structure (SMILES)	diameter of the colonies [mm]
CCCS(=O)(=O)c1nnc(C(Cl)(Cl)Cl)s1 [Compound 23, 2-trichloromethyl-5-propylsulfonyl-1,3,4-thiadiazole]	0
CC[S+]([O-])c1nnc(C(Cl)(Cl)Cl)s1 (centres unmarked) [Compound 9, 2-trichloromethyl-5-ethylsulfinyl-1,3,4-thiadiazole]	0
CCC[S+]([O-])c1nnc(C(Cl)(Cl)Cl)s1 (centres unmarked) [Compound 10, 2-trichloromethyl-5-propylsulfinyl-1,3,4-thiadiazole]	0
CCCCC[S+]([O-])c1nnc(C(Cl)Cl)s1 (centres unmarked) [Compound 7, 2-dichloromethyl-5-amylsulfinyl-1,3,4-thiadiazole]	0
